{"source": "patent US20040013730A1", "about": "“Non-hormonal vaginal contraceptive” (priority 2003, published 2004)", "system": "human sperm", "test": "Efficacy of metal salts, albumin and dextran on motility of human sperm in vitro", "details": "for concentration at which spermiostatic (motility of sperm arrested): human sperm in vitro", "data": [{"molecule": "ferrous sulfate", "values": [{"measurement": "concentration at which spermiostatic (motility of sperm arrested)", "value": 10, "unit": "mM"}]}, {"molecule": "dihydrate ferrous gluconate [dihydrate form of ferrous gluconate]", "values": [{"measurement": "onset of spermiostatic effect", "setting": "dihydrate form of ferrous gluconate", "value": "immediate"}]}, {"molecule": "ferrous gluconate", "values": [{"measurement": "immobilization of sperm", "setting": "25 mM solution", "value": 97.4, "unit": "%"}, {"measurement": "immobilization of sperm", "setting": "37.5 mM solution", "value": "completely immobilized all the sperm"}, {"measurement": "additional spermiostatic effect", "setting": "2.5% dextran added to 12.5-mM ferrous gluconate solution", "value": "no additional spermiostatic effect"}, {"measurement": "enhancement of the spermiostatic effect", "setting": "2.5% dextran and 5% albumin added to 12.5 mM ferrous gluconate", "value": "no enhancement of the spermiostatic effect"}, {"measurement": "concentration at which spermiostatic (motility of sperm arrested)", "value": 12.5, "unit": "mM"}]}, {"molecule": "[Ca+2].[Cl-].[Cl-]", "note": "[calcium chloride]", "values": [{"measurement": "concentration at which spermiostatic (motility of sperm arrested)", "value": 25, "unit": "mM"}]}]}
